What all share (experiment): inhibition of tumour cell growth, NCI panel, 48 h
The subject of assay [1] is OVCAR-8 ovarian.
For assay [2], the system named is SW-620 colon.
Assay [3] has as its system SR leukemia.
In assay [4] the test system is NCI-H522 lung.
The subject of assay [5] is SF-268 CNS.
The test system of assay [6] is SF-539 CNS.
In assay [7] the test system is RPMI-8226 leukemia.
Assay [8] relates to SNB-75 CNS.
For assay [9], the system named is BT-549 breast.
Assay [10] relates to CAKI-1 renal.

SMILES strings stand for the structures.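 1) Cells in 96-well plates. 2) Compound, 48 h, 5 concentrations. 3) Linear interpolation between surrounding doses. 4) Unreached endpoint = highest concentration. GI50 = concentration required for 50% inhibition of growth. TGI: total growth inhibition.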 Where only a bound is given, the exact number is not on record here.

`c1ccc2c(-c3nc4ccccc4[nH]3)cccc2c1`: the GI50 in assay [1] is 4.09 µM; in [2], 1.91 µM; in assay [3], 1.42 µM; in [4] it was 2.19 µM; in [5] it was 5.62 µM; in assay [6], 3.77 µM. Further, the GI50 was 3.19 µM in [7], 2.35 µM in assay [8], 3.3 µM in assay [9] and 3.18 µM in [10]. In addition, the TGI in assay [1] is 33.3 µM; in assay [2], 53.8 µM; in assay [3] it was 21.4 µM; in assay [4], 5.54 µM; in [5], greater than 100 µM; in assay [6], 23.7 µM. In addition, the TGI in assay [7] is 34.5 µM; in [8] it was 13.5 µM; in assay [9] it was 80 µM; in [10] it was greater than 100 µM.
Take `COc1cc(/C=C/C(=O)C(C(=O)/C=C/c2ccc(OC(=O)CCNc3nnc(C)s3)c(OC)c2)C(=O)CCNc2nnc(C)s2)ccc1OC(=O)CCNc1nnc(C)s1`: the GI50 was 2.93 µM in assay [1]; 1.64 µM in assay [2]; 1.18 µM in assay [3]; 2.49 µM in [4]; 2.64 µM in [5]; 2.43 µM in assay [6]. The GI50 in assay [7] is 1.85 µM; in [8], 6.19 µM; in assay [9], 2.36 µM; in assay [10] it was 2.86 µM. For the same compound, the TGI in assay [1] amounted to 16.7 µM; in [2] it was 3.33 µM; in assay [3], 3.31 µM; in assay [4], 7.79 µM; in assay [5], 11.2 µM; in assay [6] it was 6.03 µM. In addition, the TGI in [7] is 4.86 µM; in [8], 34.5 µM; in assay [9], 5.77 µM; in assay [10], greater than 34.2 µM.
With `COc1ccc(Cn2cc3c(c2-c2ccc(O)cc2)CCc2cnoc2-3)cc1`, the GI50 in [1] was 0.633 µM; in [2] it was 0.295 µM; in assay [3] it was 0.149 µM; in assay [4] it was 0.0822 µM; in [5], 0.784 µM; in assay [6] it was 0.273 µM. In addition, the GI50 in [7] was 0.365 µM; in assay [8] it was 0.221 µM; in assay [9] it was 10 µM; in assay [10], 0.331 µM. Also, the TGI in assay [1] came out at 23.6 µM; in [2] it was 15.9 µM; in [3] it was 3.79 µM; in [4] it was 0.596 µM; in [5], 18.5 µM; in assay [6] it was 3.33 µM. In addition, the TGI in [7] worked out at 6.36 µM; in [8], 0.676 µM; in assay [9], 26.7 µM; in assay [10] it was 18.8 µM.
As to `O=C(Nc1cccnc1)c1cccc([N+](=O)[O-])c1`, the GI50 in assay [1], in [2], in assay [3], in [4], in assay [5] and in assay [6] was greater than 100 µM throughout. Moreover, the GI50 in [7], in [8], in [9] and in assay [10] was greater than 100 µM in each case. Further, the TGI in assay [1], in assay [2], in [3], in [4], in assay [5] and in assay [6] was greater than 100 µM in each case. Further, the TGI in [7], in [8], in [9] and in [10] was greater than 100 µM throughout.
As to `O[C@@H]1CCCN1Cc1cc2cc3c(cc2c2cc(OCc4ccccc4)ccc12)OCO3`, the GI50 was 3.93 µM in assay [1]; 2.21 µM in [2]; 2.63 µM in assay [3]; 6.08 µM in [4]; 4.78 µM in assay [5]; 3.19 µM in [6]. Moreover, the GI50 in assay [7] is 1.77 µM; in [8], 5.92 µM; in assay [9] it was 11 µM; in assay [10], 3.42 µM. Further, the TGI is 17.6 µM in assay [1]; 5.75 µM in assay [2]; 7.08 µM in assay [3]; 21.5 µM in assay [4]; 20.1 µM in assay [5]; 10.4 µM in assay [6]. Also, the TGI was found to be 4.63 µM in assay [7], 19.7 µM in assay [8], 26.4 µM in assay [9] and 12.6 µM in assay [10].
Consider `O=C(NCC(=O)N1CC[C@H](NC2CCC(O)(c3ccc(-c4ncccn4)cn3)CC2)C1)c1cccc(C(F)(F)F)c1` (stereo not given in full), for which the GI50 in assay [1] is greater than 100 µM; in assay [2], greater than 100 µM; in assay [3] it was 25.4 µM; in [4], greater than 100 µM; in assay [5], greater than 100 µM; in assay [6] it was 96.5 µM. The GI50 is 31 µM in assay [7], 20.2 µM in [8], 34.9 µM in [9] and 45.7 µM in assay [10]. The TGI in assay [1], in assay [2], in [3], in assay [4], in [5] and in [6] was greater than 100 µM each time. Further, the TGI in assay [7], in [8], in [9] and in [10] was greater than 100 µM each time.
In the case of `O=C1/C(=C/c2ccc(Cl)cc2)CN(Cc2cn(CCNc3ccnc4cc(Cl)ccc34)nn2)C/C1=C\c1ccc(Cl)cc1`, the GI50 in assay [1] was 0.367 µM; in assay [2] it was 0.275 µM; in assay [3] it was 0.245 µM; in assay [4], 0.52 µM; in assay [5], 0.27 µM; in assay [6] it was 0.264 µM. Besides, the GI50 is 0.272 µM in assay [7], 1.22 µM in assay [8], 0.488 µM in [9] and 0.346 µM in assay [10]. Besides, the TGI in [1] stood at 1.43 µM; in assay [2] it was 0.83 µM; in [3], 0.815 µM; in assay [4], 1.19 µM; in [5] it was 0.786 µM; in [6], 0.742 µM. In addition, the TGI came out at 1.05 µM in assay [7], 2.63 µM in [8], 1.44 µM in [9] and 1.57 µM in assay [10].
Take `O=C(Nc1cccc([N+](=O)[O-])c1)c1ccc2ccccc2c1O`: the GI50 in assay [1] is 9.66 µM; in assay [2], 6.8 µM; in [3], 3.94 µM; in [4] it was 1.89 µM; in assay [5], 7.72 µM; in assay [6] it was 4.63 µM. Further, the GI50 in assay [7] was 1.28 µM; in assay [8], 17 µM; in assay [9], 1.75 µM; in assay [10] it was 2.48 µM. The TGI is greater than 100 µM in [1]; greater than 100 µM in assay [2]; greater than 29.1 µM in [3]; 6.96 µM in assay [4]; greater than 100 µM in assay [5]; greater than 64.8 µM in assay [6]. The TGI in assay [7] is 5.99 µM; in assay [8], greater than 100 µM; in [9] it was 5.53 µM; in [10] it was greater than 38.4 µM.
As for `CCCCCCCCCCCCCCCCOC(=O)c1c(C)[nH]c(/C=C2\N=C(c3ccc[nH]3)C=C2OC)c1C`, the GI50 in [1] was 0.384 µM; in assay [2], 0.182 µM; in assay [3], 1.54 µM; in assay [4], 5.69 µM; in [5] it was 1.99 µM; in assay [6], 2.3 µM. Besides, the GI50 is 0.0958 µM in [7], 2.47 µM in [8], 2.23 µM in assay [9] and 0.212 µM in assay [10]. In addition, the TGI in assay [1] was 15 µM; in assay [2], greater than 100 µM; in assay [3], greater than 100 µM; in [4] it was greater than 70.1 µM; in [5], 19.6 µM; in assay [6], 13.6 µM. Moreover, the TGI in assay [7] was greater than 100 µM; in assay [8], 7.17 µM; in assay [9], 20.4 µM; in assay [10] it was 30.5 µM.
With `CC(=O)Nc1ccc2c(c1)C(=O)c1cccc(F)c1-2`, the TGI in assay [1] was greater than 100 µM; in assay [2], greater than 100 µM; in assay [3] it was greater than 71.4 µM; in [4], greater than 100 µM; in assay [5] it was greater than 100 µM; in assay [6], greater than 100 µM. Moreover, the TGI in assay [7], in assay [8], in assay [9] and in assay [10] was greater than 100 µM in each case.
With `Cc1[nH]n(-c2ccc(S(=O)(=O)O)cc2)c(=O)c1N=Nc1ccccc1`, the TGI in assay [1], in assay [2], in assay [3], in assay [4], in assay [5] and in [6] was greater than 100 µM each time. The TGI in assay [7], in assay [8], in [9] and in assay [10] was greater than 100 µM throughout.
On to `N#Cc1c(-c2ccc(Cl)cc2)c(-c2ccc(Cl)cc2)nn(CCOC(=O)CCC(=O)O)c1=O`, for which the TGI in assay [1] was greater than 78.4 µM; in assay [2] it was greater than 100 µM; in [3], 25.6 µM; in [4], 4.88 µM; in assay [5] it was greater than 72.1 µM; in [6], 1.49 µM. The TGI was greater than 60 µM in assay [7], greater than 75.7 µM in [8], greater than 100 µM in assay [9] and 22.9 µM in assay [10].
In the case of `CC(C)=CC(O)C/C(C)=C/CC/C(C)=C/CCC1(C)C(CCCO)/C(=C(/C)C=O)CCC1(C)O` (stereo not given), the TGI in assay [1] is greater than 100 µM; in [2], greater than 100 µM; in [3] it was 83.3 µM; in assay [4], greater than 100 µM; in assay [5] it was greater than 100 µM; in assay [6], 52 µM. In addition, the TGI was 47.2 µM in [7], greater than 100 µM in [8], greater than 100 µM in assay [9] and greater than 100 µM in [10].
For the compound `CCN(CC)CCCNc1nc2ccccc2c2c(=O)c3cc(Cl)ccc3sc12`, the GI50 in assay [1] is 3.26 µM; in assay [2], 1.77 µM; in [3], 3.75 µM; in [4], 2.02 µM; in [5] it was 3.26 µM; in assay [6] it was 1.73 µM. The GI50 in [7] was 3.2 µM; in assay [8], 4.36 µM; in assay [9] it was 15.8 µM; in assay [10], 4.4 µM. For the same compound, the TGI in assay [1] is 15.7 µM; in assay [2] it was 3.41 µM; in assay [3], greater than 100 µM; in assay [4], 4.41 µM; in assay [5] it was 14.3 µM; in assay [6], 3.35 µM. Further, the TGI in assay [7] came out at 10.1 µM; in assay [8] it was 18.3 µM; in [9] it was 30.4 µM; in assay [10], 17.1 µM.
Take `CCCC(=O)Nc1cc([N+](=O)[O-])c([N+](=O)[O-])cc1OC`: the TGI in assay [1] was 34.2 µM; in assay [2] it was 89.9 µM; in assay [3], 21.5 µM; in assay [4] it was 27.6 µM; in assay [5], 34.6 µM; in [6] it was 37.8 µM. For the same compound, the TGI is 68.4 µM in [7], 30.3 µM in [8], 31 µM in [9] and 29.5 µM in assay [10].
With `CNc1cccnc1/C=N/NC(N)=S`, the TGI in assay [1] is greater than 10 µM; in [2], greater than 10 µM; in [3], greater than 10 µM; in [4], greater than 10 µM; in assay [5], greater than 10 µM; in assay [6], 1.54 µM. Moreover, the TGI in assay [7] was greater than 10 µM; in [8], greater than 7.14 µM; in assay [9], greater than 10 µM; in assay [10] it was greater than 10 µM.
`O=C1/C(=C/c2ccc([N+](=O)[O-])o2)Oc2ccccc21`: the GI50 in assay [1] is 1.35 µM; in [2], 0.373 µM; in assay [3] it was 0.219 µM; in assay [4], 0.384 µM; in assay [5], 2.19 µM; in assay [6], 1.87 µM. The GI50 is 1.02 µM in assay [7], 1.8 µM in assay [8], 1.76 µM in assay [9] and 0.758 µM in assay [10]. Also, the TGI in assay [1] is 3.82 µM; in assay [2] it was 1.61 µM; in assay [3], 1.13 µM; in assay [4] it was 1.45 µM; in [5], 5.86 µM; in assay [6] it was 4.14 µM. The TGI in [7] was 3.58 µM; in [8], 5.77 µM; in assay [9], 3.74 µM; in assay [10], 2.17 µM.

For the origin of these results see PubChem BioAssay (NCI).
